Test results as given in article PMC8474116, “Discovery of Novel Acetamide-Based Heme Oxygenase-1 Inhibitors with Potent In Vitro Antiproliferative Activity” (Journal of Medicinal Chemistry, 2021).

Assays:
[1] = system: HO-1; experiment: HO-1 inhibition of known inhibitors (values printed in Figure 1); format: biochemical; details: 0.27 vs 4.0 μM
[2] = system: A172 cells; experiment: MTT cell viability assay, A172; format: cell-based, human; details: 48 h, all tested concentrations (1, 10, 50 μM)
Experimental: Experiments were performed on human GBM cell lines U87MG (ATCCC number #HTB-14) and A172 (ATCCC #CRL-1620) on DU145 (ATCC HTB-81) and human lung adenocarcinoma A549 (ATCC CCL-185-LUC2). All cell lines were obtained from the American Type Culture Collection (ATCC, Rockville, MD). Cells were grown in Dulbecco’s modified Eagle’s medium (DMEM) supplemented with 10% of heat-inactivated fetal bovine serum (FBS), 100 U/mL of penicillin, and 100 μg/mL of streptomycin (Sigma-Aldrich, Steinheim, Germany). Cells were incubated at 37 °C in a humidified atmosphere with 5% CO2.
The effect of selected compounds 7i and 7l–p on cell viability was assessed by performing an MTT assay. Cells were seeded into 96-well plates at a density of 7 × 10^3 cells/well in 100 μL of culture medium. After 24 h, cells were treated with selected compounds at three different concentrations (1 μM, 10 μM, and 50 μM) for 48 h. Following treatments, 0.5 mg/mL of 3-[4,5-dimethylthiazol-2-yl]-2,5-diphenyltetrazolium bromide (MTT) (Sigma-Aldrich) was added to each well and incubated for 4 h at 37 °C. Finally, dimethyl-sulfoxide (DMSO) was used to dissolve formazan salts, and absorbance was measured at 570 nm in a microplate reader (Biotek Synergy-HT). Eight replicate wells were used for each group.

[3] = biological target: T1, HO-1 (Rattus norvegicus, UniProt P06762); experiment: HO-1 enzymatic activity, rat spleen microsomal fraction (bilirubin formation); format: biochemical
T1 construct: selected to use the most native (i.e., closest to in vivo) forms of HO-1 and HO-2; from tissue; host or cells: rat spleen (male Sprague-Dawley), microsomal fraction
T1 sequence (P06762 1-289): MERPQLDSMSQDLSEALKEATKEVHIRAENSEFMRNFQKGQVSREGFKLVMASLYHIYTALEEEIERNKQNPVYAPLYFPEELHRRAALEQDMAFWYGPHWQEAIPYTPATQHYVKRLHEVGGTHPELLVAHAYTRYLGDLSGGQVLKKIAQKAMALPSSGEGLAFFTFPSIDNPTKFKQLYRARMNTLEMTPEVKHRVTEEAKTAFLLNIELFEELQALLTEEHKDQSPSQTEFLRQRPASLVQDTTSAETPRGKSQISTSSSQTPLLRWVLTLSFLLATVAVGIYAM
Experimental: (§1) HO-1 and HO-2 were obtained, respectively, from the rat spleen and brain as the microsomal fraction prepared by differential centrifugation; the dominance of HO-1 protein in the rat spleen and HO-2 in the rat brain has been well documented.[24] These particular microsomal preparations were selected to use the most native (i.e., closest to in vivo) forms of HO-1 and HO-2. Spleen and brain (Sprague-Dawley rats) microsomal fractions were prepared according to the procedure outlined by Ryter et al.[2] The experiments reported in the present paper complied with the current Italian law and met the guidelines of the Institutional Animal Care and Use Committee of the Ministry of Health (Directorate General for Animal Health and Veterinary Medicines, Italy) “Dosing of enzymatic activities in rat microsomes” (2018–2022), project code 02769.N.VLY. The experiments were performed in male Sprague-Dawley albino rats (150 g body weight and age 45 d). They had free access to water and were kept at room temperature with a natural photoperiod (12 h light–12 h dark cycle). For measuring HO-1 and HO-2 activities, each rat was sacrificed and their spleen and brain were excised and weighed. A homogenate (15%, w/v) of spleens and brains pooled from four rats was prepared in ice-cold HO-homogenizing buffer (50 mM Tris buffer, pH 7.4, containing 0.25 M sucrose) using a Potter–Elvehjem homogenizing system with a Teflon pestle. The microsomal fraction of rat spleen and brain homogenate was obtained by centrifugation at 10 000g for 20 min at 4 °C, followed by centrifugation of the supernatant at 100 000g for 60 min at 4 °C. The 100 000g pellet (microsomes) was resuspended in 100 mM of potassium phosphate buffer, pH 7.8, containing 2 mM MgCl2 with a Potter–Elvehjem homogenizing system. The rat spleen and brain microsomal fractions were divided into equal aliquots, placed into microcentrifuge tubes, and stored at −80 °C for up to 2 months.
(§2) Liver cytosol has been used as a source of biliverdin reductase. Rat liver was perfused through the hepatic portal vein with cold 0.9% NaCl; then, it was cut and flushed with 2 × 20 mL of ice-cold PBS to remove all of the blood. Liver tissue was homogenized in 3 volumes of a solution containing 1.15% KCl w/v and Tris buffer 20 mM, pH 7.8 on ice. Homogenates were centrifuged at 10 000g for 20 min at 4 °C. The supernatant was decanted and centrifuged at 100 000g for 1 h at 4 °C to sediment the microsomes. The 100 000g supernatant was saved and then stored in small amounts at −80 °C after its protein concentration was measured.
(§3) The HO-1 and HO-2 activities were determined by measuring the bilirubin formation using the difference in absorbance at 464–530 nm, as described by Ryter et al.[2] Reaction mixtures (500 μL) consisted of 20 mM of Tris–HCl, pH 7.4, (1 mg/mL) microsomal extract, 0.5–2 mg/mL of biliverdin reductase, 1 mM of NADPH, 2 mM of glucose 6-phosphate (G6P), 1 U of G6P dehydrogenase, 25 μM of hemin, and 10 μL of DMSO (or the same volume of DMSO solution of test compounds to a final concentration of 100, 10, and 1 μM). Incubations were carried out for 60 min at 37 °C in a circulating water bath in the dark. Reactions were stopped by adding the same volume of chloroform. After recovering the chloroform phase, the amount of bilirubin formed was measured with a double-beam spectrophotometer as OD464–530 nm (extinction coefficient, 40 mM/cm^–1 for bilirubin). One unit of the enzyme was defined as the amount of enzyme catalyzing the formation of 1 nmol of bilirubin/mg protein/h.

[4] = biological target: T2, HO-2 (Rattus norvegicus, UniProt P23711); experiment: HO-2 enzymatic activity, rat brain microsomal fraction (bilirubin formation); format: biochemical; details: mean of triplicate ± SD
T2 construct: selected to use the most native (i.e., closest to in vivo) forms of HO-1 and HO-2; from tissue; host or cells: rat brain (male Sprague-Dawley), microsomal fraction
T2 sequence (P23711 1-315): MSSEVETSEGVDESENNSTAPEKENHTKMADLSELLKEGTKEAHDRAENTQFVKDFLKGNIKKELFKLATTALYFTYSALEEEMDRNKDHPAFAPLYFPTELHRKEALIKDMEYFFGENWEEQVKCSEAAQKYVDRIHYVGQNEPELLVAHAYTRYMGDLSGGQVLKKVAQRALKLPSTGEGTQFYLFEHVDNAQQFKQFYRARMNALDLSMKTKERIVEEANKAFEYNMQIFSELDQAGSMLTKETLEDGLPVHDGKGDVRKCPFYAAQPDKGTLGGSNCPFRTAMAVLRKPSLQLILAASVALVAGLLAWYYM
Experimental: as §1, §2, §3

[5] = system: HO-1; experiment: HO-1 protein expression by Western blot, A172; format: cell-based, human; details: A172, 10 μM, 48 h
Experimental: (§4) Proteins were extracted from total cell lysate, as previously described.[61] Briefly, cell lines were added to a buffer containing 20 mM Tris (pH 7.4), 2 mM EDTA, 0.5 mM EGTA, 50 mM mercaptoethanol, and […] sucrose supplemented with phosphatase and protease inhibitor cocktails (Roche Diagnostics, Monza, Italy). Subsequently, protein samples were sonicated twice for 20′ by using an ultrasonic probe, followed by centrifugation at 10 000g for 10 min at 4 °C. Sample proteins (30 μg) were diluted in 4X NuPage LDS sample buffer (Invitrogen, NP0007), heated at 80 °C for 5 min, and then separated on a Biorad Criterion XT 4–15% Bis–Tris gel (BIO-RAD) by electrophoresis and then transferred to a PVDF membrane (BIO-RAD). Blots were blocked using the Odyssey Blocking Buffer (LI-COR Biosciences) and probed with appropriate antibodies: HO-1 antibody (GeneTex GTX101147), goat polyclonal anti-VEGF (cat. no. sc-1836, Santa Cruz Biotechnology), and rabbit polyclonal anti-β-tubulin (cat n.sc-9104, Santa Cruz Biotechnology) and β-actin antibody (GeneTex GTX109639).
(§5) The secondary antibodies goat antirabbit (Odyssey, #926-32211; Odyssey #926-68021) and donkey antigoat IRDye 800CW (cat #926-32214; Li-Cor Biosciences) were used at 1:7000. Blots were scanned, and densitometric analysis was performed with the Odyssey Infrared Imaging System. Values were normalized to β-actin and to β-tubulin.

[6] = system: HO-1; experiment: HO-1 protein expression by Western blot, DU145; format: cell-based; details: DU145, 10 μM, 48 h
Experimental: as §4, §5

HO-1 vs HO-2 selectivity (in words) [3] | fold more potent than parent compound 4 (HO-1) [3] | IC50 ([3]; rat spleen microsomal fraction, mean of triplicate ± SD) [nM] | SI (HO-2/HO-1) ([3]; ratio of HO-2 and HO-1 IC50) | IC50 [4] [nM] | melting point [°C] | Structure (SMILES) | fold higher inhibitory potency toward HO-1 with respect to monophenyl analogue 2 [1] [fold] | cell viability reduction (in words) [2] | HO-1 protein expression (in words) [5] | HO-1 protein expression (in words) [6]
 |  |  |  |  |  | O=C(CC(c1ccccc1)c1ccccc1)Cn1ccnc1 [compound 3] | 15 |  |  | 
superimposable HO-1 and HO-2 IC50 values | about 32 fold | 900 ± 70 | 1 | 900 ± 50 | 121 to 126 | CN(C(=O)Cn1ccnc1)C(c1ccccc1)c1ccccc1 [7i, N-Benzhydryl-2-(1H-imidazol-1-yl)-N-methylacetamide] |  | remarkable reduction of cell viability | enhanced its levels | reduced HO-1 protein expression
